Data taken from patent US9725416B2, “Ethynyl derivatives” (Hoffmann-La Roche Inc., priority 2014, dated 2017).

Biological target: T1, human mGlu4 receptor (Homo sapiens, UniProt Q14833)
T1 construct: expressed in transfected cells; host or cells: HEK-293 (monoclonal, stably transfected)
Assay: Ca2+ mobilization in vitro assay on recombinant human mGlu4 expressed in HEK293 cells (mGlu4 PAM)
Type: cell-based
Conditions: for Emax: HEK293, maximal response in % of the maximal stimulatory effect obtained with saturating concentrations of L-AP4, read-out: Eff. (%); for EC50: HEK-293 cells, Ca2+ mobilization, L-AP4 added at EC20
Description: Determination of EC50 Values Using a Ca2+ mobilization in vitro Assay on Recombinant Human mGlu4 Expressed in HEK293 cells:
A monoclonal HEK-293 cell line stably transfected with a cDNA encoding for the human mGlu4 receptor was generated; for the work with mGlu4 Positive Allosteric Modulators (PAMs), a cell line with low receptor expression levels and low constitutive receptor activity was selected to allow the differentiation of agonistic versus PAM activity. Cells were cultured according to standard protocols (Freshney, 2000) in Dulbecco's Modified Eagle Medium with high glucose supplemented with 1 mM glutamine, 10% (vol/vol) heat-inactivated bovine calf serum, Penicillin/Streptomycin, 50 μg/ml hygromycin and 15 μg/ml blasticidin (all cell culture reagents and antibiotics from Invitrogen, Basel, Switzerland).
About 24 hrs before an experiment, 5×10^4 cells/well were seeded in poly-D-lysine coated, black/clear-bottomed 96-well plates. The cells were loaded with 2.5 μM Fluo-4AM in loading buffer (1×HBSS, 20 mM HEPES) for 1 hr at 37° C. and washed five times with loading buffer. The cells were transferred into a Functional Drug Screening System 7000 (Hamamatsu, Paris, France), and 11 half logarithmic serial dilutions of test compound at 37° C. were added and the cells were incubated for 10-30 min. with on-line recording of fluorescence. Following this pre-incubation step, the agonist (2S)-2-amino-4-phosphonobutanoic acid (L-AP4) was added to the cells at a concentration corresponding to EC20 with on-line recording of fluorescence; in order to account for day-to-day variations in the responsiveness of cells, the EC20 of L-AP4 was determined immediately ahead of each experiment by recording of a full dose-response curve of L-AP4.
Responses were measured as peak increase in fluorescence minus basal (i.e. fluorescence without addition of L-AP4), normalized to the maximal stimulatory effect obtained with saturating concentrations of L-AP4. Graphs were plotted with the % maximal stimulatory using XLfit, a curve fitting program that iteratively plots the data using Levenburg Marquardt algorithm. The single site competition analysis equation used was y=A+((B−A)/(1+((x/C)D))), where y is the % maximal stimulatory effect, A is the minimum y, B is the maximum y, C is the EC50, x is the log 10 of the concentration of the competing compound and D is the slope of the curve (the Hill Coefficient). From these curves the EC50 (drug concentration at which 50% of the maximal receptor activation was achieved), the Hill coefficient as well as the maximal response in % of the maximal stimulatory effect obtained with saturating concentrations of L-AP4 were calculated (see FIG. 1).
A depression of the signal observed after addition of the EC20 concentration of L-AP4was indicative of an inhibitory activity of the test compound.

T1 sequence (Q14833 33-912): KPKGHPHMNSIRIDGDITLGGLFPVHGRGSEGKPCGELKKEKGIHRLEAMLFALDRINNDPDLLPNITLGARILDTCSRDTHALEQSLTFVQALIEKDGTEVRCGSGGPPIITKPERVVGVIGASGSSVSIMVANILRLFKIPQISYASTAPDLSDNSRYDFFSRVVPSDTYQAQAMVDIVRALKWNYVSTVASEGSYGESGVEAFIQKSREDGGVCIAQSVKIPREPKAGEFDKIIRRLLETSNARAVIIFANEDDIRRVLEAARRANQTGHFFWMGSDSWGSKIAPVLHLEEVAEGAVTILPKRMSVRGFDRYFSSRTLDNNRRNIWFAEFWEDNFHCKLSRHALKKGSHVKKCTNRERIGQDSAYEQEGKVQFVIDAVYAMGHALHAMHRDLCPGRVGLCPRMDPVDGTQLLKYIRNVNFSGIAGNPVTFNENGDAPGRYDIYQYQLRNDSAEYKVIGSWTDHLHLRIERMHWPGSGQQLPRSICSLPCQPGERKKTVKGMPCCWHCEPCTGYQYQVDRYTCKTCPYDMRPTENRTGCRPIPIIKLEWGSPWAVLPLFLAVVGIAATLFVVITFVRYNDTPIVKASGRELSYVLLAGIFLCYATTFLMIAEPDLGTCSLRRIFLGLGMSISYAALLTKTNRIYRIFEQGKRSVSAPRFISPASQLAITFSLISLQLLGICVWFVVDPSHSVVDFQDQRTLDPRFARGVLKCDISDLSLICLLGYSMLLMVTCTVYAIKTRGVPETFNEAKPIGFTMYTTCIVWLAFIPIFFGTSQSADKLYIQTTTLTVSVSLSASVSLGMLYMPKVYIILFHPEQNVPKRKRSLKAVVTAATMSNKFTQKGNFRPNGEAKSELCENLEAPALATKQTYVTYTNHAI

SMILES	Emax	EC50
CN1C(=O)N(c2c(F)cc(C#Cc3ccccc3)cc2F)C(=O)CC1(C)C [Example 1, 3-[2,6-Difluoro-4-(2-phenylethynyl)phenyl]-1,6,6-trimethyl-hexahydropyrimidine-2,4-dione]	191%	92 nM
CN1C(=O)N(c2c(F)cc(C#Cc3ccccc3)cc2F)C(=O)C[C@@]1(C)c1cccnc1 [Example 49, (6S)-3-[2,6-Difluoro-4-(2-phenylethynyl)phenyl]-1,6-dimethyl-6-(3-pyridyl)hexahydropyrimidine-2,4-dione]	98%	37 nM
CN1C(=O)N(c2c(F)cc(C#Cc3ccccc3)cc2F)C(=O)C[C@@]1(C)c1ccc(=O)[nH]c1 [Example 65, (6S)-3-[2,6-Difluoro-4-(2-phenylethynyl)phenyl]-1,6-dimethyl-6-(6-oxo-1H-pyridin-3-yl)hexahydropyrimidine-2,4-dione]	123%	36 nM
CN1C(=O)N(c2c(F)cc(C#Cc3ccccc3)cc2F)C(=O)C[C@@]1(C)c1ccc2nccn2n1 [Example 85, (6S)-3-[2,6-Difluoro-4-(2-phenylethynyl)phenyl]-6-imidazo[1,2-b]pyridazin-6-yl-1,6-dimethyl-hexahydropyrimidine-2,4-dione]	88%	57 nM
CC(C)Oc1ccc([C@]2(C)CC(=O)N(c3c(F)cc(C#Cc4ccccc4)cc3F)C(=O)N2C)cn1 [Example 69, (6S)-3-[2,6-Difluoro-4-(2-phenylethynyl)phenyl]-6-(6-isopropoxy-3-pyridyl)-1,6-dimethyl-hexahydropyrimidine-2,4-dione]	95%	97 nM
CN1C(=O)N(c2c(F)cc(C#Cc3ccccc3)cc2F)C(=O)[C@H]2CCC[C@H]21 (racemic) [Example 11, (4aRS,7aSR)-3-[2,6-Difluoro-4-(2-phenylethynyl)phenyl]-1-methyl-5,6,7,7a-tetrahydro-4aH-cyclopenta[d]pyrimidine-2,4-dione]	131%	163 nM
CC(C)C1(C)CC(=O)N(c2c(F)cc(C#Cc3ccccc3)cc2F)C(=O)N1C (racemic) [Example 26, (6RS)-3-[2,6-Difluoro-4-(2-phenylethynyl)phenyl]-6-isopropyl-1,6-dimethyl-hexahydropyrimidine-2,4-dione]	107%	64 nM
CC(C)N1C(=O)N(c2c(F)cc(C#Cc3ccccc3)cc2F)C(=O)C[C@@]1(C)c1cccnc1 [Example 70, (6S)-3-[2,6-Difluoro-4-(2-phenylethynyl)phenyl]-1-isopropyl-6-methyl-6-(3-pyridyl)hexahydropyrimidine-2,4-dione]	106%	73 nM
CC1C(=O)N(c2c(F)cc(C#Cc3ccccc3)cc2F)C(=O)N(C)C1(C)C (racemic) [Example 7, (5RS)-3-[2,6-Difluoro-4-(2-phenylethynyl)phenyl]-1,5,6,6-tetramethyl-hexahydropyrimidine-2,4-dione]	148%	157 nM
CN1C(=O)N(c2c(F)cc(C#Cc3ccccc3)cc2F)C(=O)C[C@@]1(C)c1ccncc1 [Example 78, (6S)-3-[2,6-Difluoro-4-(2-phenylethynyl)phenyl]-1,6-dimethyl-6-(4-pyridyl)hexahydropyrimidine-2,4-dione]	111%	68 nM
CN1C(=O)N(c2c(F)cc(C#Cc3ccccc3)cc2F)C(=O)C[C@@]1(C)c1cnc2c(ccn2C)c1 [Example 84, (6S)-3-[2,6-Difluoro-4-(2-phenylethynyl)phenyl]-1,6-dimethyl-6-(1-methylpyrrolo[2,3-b]pyridin-5-yl)hexahydropyrimidine-2,4-dione]	114%	40 nM
CN1C(=O)N(c2c(F)cc(C#Cc3cccnc3)cc2F)C(=O)C[C@@]1(C)c1cccnc1 [Example 53, (6S)-3-[2,6-Difluoro-4-[2-(3-pyridyl)ethynyl]phenyl]-1,6-dimethyl-6-(3-pyridyl)hexahydropyrimidine-2,4-dione]	110%	80 nM
COc1ncc([C@]2(C)CC(=O)N(c3c(F)cc(C#Cc4ccccc4)cc3F)C(=O)N2C)cn1 [Example 79, (6S)-3-[2,6-Difluoro-4-(2-phenylethynyl)phenyl]-6-(2-methoxypyrimidin-5-yl)-1,6-dimethyl-hexahydropyrimidine-2,4-dione]	105%	46 nM
CN1C(=O)N(c2ccc(C#Cc3ccccc3)cc2Cl)C(=O)CC12CCOCC2 [Example 4, 3-[2-Chloro-4-(2-phenylethynyl)phenyl]-1-methyl-9-oxa-1,3-diazaspiro[5.5]undecane-2,4-dione]	103%	388 nM
Cc1ccc([C@]2(C)CC(=O)N(c3c(F)cc(C#Cc4ccccc4)cc3F)C(=O)N2C)cn1 [Example 54, (6S)-3-[2,6-Difluoro-4-(2-phenylethynyl)phenyl]-1,6-dimethyl-6-(6-methyl-3-pyridyl)hexahydropyrimidine-2,4-dione]	98%	70 nM
CN1C(=O)N(c2ccc(C#Cc3ccccc3)cc2Cl)C(=O)CC12CCC2 [Example 5, 7-[2-Chloro-4-(2-phenylethynyl)phenyl]-5-methyl-5,7-diazaspiro[3.5]nonane-6,8-dione]	93%	304 nM
CN1C(=O)N(c2ncc(C#Cc3ccccc3)cc2F)C(=O)CC1(C)c1ccccc1 (racemic) [Example 45, (6RS)-3-[3-Fluoro-5-(2-phenylethynyl)-2-pyridyl]-1,6-dimethyl-6-phenyl-hexahydropyrimidine-2,4-dione]	107%	72 nM
CN1C(=O)N(c2c(F)cc(C#Cc3ccccc3)cc2F)C(=O)CC1(C)c1ccc(Cl)nc1 (racemic) [Example 51, (6RS)-6-(6-Chloro-3-pyridyl)-3-[2,6-difluoro-4-(2-phenylethynyl)phenyl]-1,6-dimethyl-hexahydropyrimidine-2,4-dione]	108%	88 nM
CCN1C(=O)N(c2c(F)cc(C#Cc3cccnc3)cc2F)C(=O)CC1(C)c1ccccc1 (racemic) [Example 16, (6RS)-3-[2,6-Difluoro-4-[2-(3-pyridyl)ethynyl]phenyl]-1-ethyl-6-methyl-6-phenyl-hexahydropyrimidine-2,4-dione]	136%	105 nM
CN1C(=O)N(c2ncc(C#Cc3ccccc3)cc2F)C(=O)C[C@@]1(C)c1cccnc1 [Example 50, (6S)-3-[3-Fluoro-5-(2-phenylethynyl)-2-pyridyl]-1,6-dimethyl-6-(3-pyridyl)hexahydropyrimidine-2,4-dione]	164%	104 nM
CCN1C(=O)N(c2c(F)cc(C#Cc3ccccc3)cc2F)C(=O)C[C@@]1(C)c1ccnc(C)c1 [Example 77, (6S)-3-[2,6-Difluoro-4-(2-phenylethynyl)phenyl]-1-ethyl-6-methyl-6-(2-methyl-4-pyridyl)hexahydropyrimidine-2,4-dione]	111%	68 nM
CN1C(=O)N(c2c(F)cc(C#Cc3ccccc3)cc2F)C(=O)C[C@@]1(C)c1ccnnc1 [Example 61, (6S)-3-[2,6-Difluoro-4-(2-phenylethynyl)phenyl]-1,6-dimethyl-6-pyridazin-4-yl-hexahydropyrimidine-2,4-dione]	136%	84 nM
CN1C(=O)N(c2c(F)cc(C#Cc3cccnc3)cc2F)C(=O)CC1(C)c1ccccc1 (stereo in doubt) [Example 20, (6R)-3-[2,6-Difluoro-4-[2-(3-pyridyl)ethynyl]phenyl]-1,6-dimethyl-6-phenyl-hexahydropyrimidine-2,4-dione]	175%	239 nM
Cc1cc([C@]2(C)CC(=O)N(c3c(F)cc(C#Cc4ccccc4)cc3F)C(=O)N2C)ccn1 [Example 62, (6S)-3-[2,6-Difluoro-4-(2-phenylethynyl)phenyl]-1,6-dimethyl-6-(2-methyl-4-pyridyl)hexahydropyrimidine-2,4-dione]	102%	56 nM
CN1C(=O)N(c2ccc(C#Cc3ccccc3)cc2Cl)C(=O)CC1(C)C [Example 2, 3-[2-Chloro-4-(2-phenylethynyl)phenyl]-1,6,6-trimethyl-hexahydropyrimidine-2,4-dione]	107%	341 nM
